Source: US10180423B2, “Micropillar arrays for assaying myelination” (The Regents of the University of California, priority 2012, dated 2019)
Structures can show the parent of a compound that is named as a salt. Where two headings read alike, the source gives them in different places.

Key:
[1] = test system: oligodendrocyte precursor cells (OPCs); settings: for number of red "myelin rings" generated by oligodendrocytes (MBP positive staining) compared to control: compound added at 4 div for two days, images at 6 div; for generation of "myelin rings" on the micropillar platform: OPCs plated on micropillar arrays
Description: Using Axiovision software by Zeiss, we can automate the detection and quantification of the number of myelin rings without any of the confounding issues associated with the nanofibers (i.e. length of internodes, interfering cell processes, cell bodies, etc.). Essentially, oligodendrocyte precursor cells (OPCs) will be visualized as green rings whereas oligodendrocytes are indicated as red rings (FIG. 4C).
(A-C) Immunostaining for myelination by oligodendrocytes (red, MBP positive staining) surrounding micropillars. Oligodendrocytes were cultured on micropillars for total of 6 days in vitro (div) and received compounds known to enhance differentiation at 4 div for two days. […] Images were acquired at 6 div. Scale bar, 50 μm.

oligodendroglia = settings: polystyrene nanofibers, no axons
Protocol: The exquisite flexibility in the design of our nanofibers guarantees constant uniformity and density of fibers in the experimental design and any effects from compounds tested could be attributed solely to direct influences on oligodendroglia (FIG. 2), without confounding effects from neurons.
Nanofibers are patterned and deposited into a 24-well format and placed under an automated fluorescence microscope with incubation chamber. Upon addition of oligodendroglia and small molecules, cells cultured with the nanofibers can be analyzed for effects on proliferation, survival, differentiation, and myelination in real time. […]
To initiate a screen, a candidate list of known molecules and chemical inhibitors thought to play a role in promoting oligodendrocyte differentiation and myelination was compiled, and applied various FDA approved compounds in the treatment of psychiatric disorders. […] Additionally, the ability to quantify a functional readout for differentiation and myelination by oligodendrocytes, provides the unique opportunity to uncouple the axonal contribution on myelination.
Oligodendrocyte differentiation and myelination were examined on our nanofiber platform (a). […] Cultures were immunostained after 7 days in vitro and analyzed for myelin basic protein (red).

[2] = test system: purified oligodendroglia cocultured with purified neurons
Description: In the cocultures, myelin internodes can be routinely identified by the “tube-like” structures (immunostained for myelin-specific proteins) formed by the oligodendrocytes. […] Overall, the coculture system recapitulates the timing of oligodendrocyte development and myelination in vivo and represents a powerful tool to validate compounds and factors that may both promote and inhibit oligodendroglial development. […] Additionally, the ability to quantify a functional readout for differentiation and myelination by oligodendrocytes, provides the unique opportunity to uncouple the axonal contribution on myelination.
Cultures were immunostained after 7 days in vitro and analyzed for myelin basic protein (red).

SMILES	number of red "myelin rings" generated by oligodendrocytes (MBP positive staining) compared to control ([1]; 1 μM)	generation of "myelin rings" on the micropillar platform [1]	differentiation of oligodendrocytes and myelination of the nanofibers (oligodendroglia)	differentiation and myelination of neuronal axons ([2]; purified oligodendroglia with purified neurons)	oligodendrocyte differentiation and myelination (myelin basic protein immunostaining) ([2]; quetiapine fumarate 100 nM, 7 days in vitro, Oligodendrocyte-DRG cocultures)	number of red "myelin rings" generated by oligodendrocytes (MBP positive staining) compared to control ([1]; 30 ng/mL)
OCCOCCN1CCN(C2=Nc3ccccc3Sc3ccccc32)CC1 [quetiapine fumarate]	increases	significantly enhanced	greatly enhanced	significantly enhances	significantly accelerated	
N[C@@H](Cc1cc(I)c(Oc2ccc(O)c(I)c2)c(I)c1)C(=O)O [thyroid hormone]		significantly enhanced				increases
